Measurements published in EPA's ToxValDB 9.5 (doi:10.2903/j.efsa.2008.140r).
Converted amounts (≈) assume the structure as drawn.

What was measured:
[1] = system: Daphnia magna; details: chronic/long-term; duration: 21 days; reproduction
[2] = system: Canidae; details: chronic; duration: 1 years; oral; Dog Other; clinical signs
[3] = system: Colinus virginianus; details: acute; oral; mortality
[4] = system: Typhlodromus pyri; details: not reported; other
[5] = system: Rattus norvegicus; details: for NOAEL: chronic
[6] = system: Oncorhynchus mykiss
[7] = system: Tagia sp.

CCN(CC)C(=O)C(C)Oc1cccc2ccccc12 (stereo unspecified) [Napropamide]
NOEC [1]: 4.3 mg/L
NOAEL [2]: 50 mg/kg-day
LD50 [3]: > 2250 mg/kg-day
LEL [4]: 4500 g/ha
LD50 ([5]; acute, mortality): 4680 mg/kg-day
NOAEL ([5]; duration: 2 years, oral, body weight): 30 mg/kg-day
NOAEL ([5]; mortality): 30 mg/kg-day
LC50 ([6]; acute, duration: 96 hours, mortality): 6.6 µg/mL (≈ 24.3 µM)
NOEC ([6]; chronic/long-term, duration: 28 days, growth): 1.1 mg/L
LC50 ([7]; acute, duration: 14 days, mortality): 564 mg/kg
NOEC ([7]; chronic/long-term, reproduction): 60 mg/kg
